Results reported in ChEMBL document CHEMBL4680246, “Design, synthesis and biological evaluation of novel O-carbamoyl ferulamide derivatives as multi-target-directed ligands for the treatment of Alzheimer's disease” (Eur J Med Chem, 2020).
Activity calls are given as the source filed them. No cut-off for these calls is given here.

Assays:
[1] = Effect on APP protein level in mouse HT22 cells transfected with pEGFP-N1-APP plasmid assessed as fluorescence intensity at 2.5 uM by fluorescence microscopy (reference value: 33.2); type: functional, HT-22
[2] = biological target: Cholinesterase (Equus caballus, UniProt P81908); assay: Inhibition of equine serum BuChE using BTC as substrate after 15 mins by Ellman's method
[3] = Toxicity in AlCl3-induced Zebrafish model of Alzheimer's disease assessed as mortality at 50 ug/ml relative to control; parameters: species or system Danio rerio; conditions: in vivo, at 50 µg/mL
[4] = Cytotoxicity against human LO2 cells assessed as cell viability at 50 uM by MTT assay relative to control; type: cell-based, L02; conditions: read-out: Activity
[5] = Drug metabolism in rat intestinal flora by HPLC analysis; type: ADME, tissue-based, Intestine
[6] = system: Mus musculus; assay: Improvement in brain cholinergic activity in scopolamine-induced mouse model of amnesia assessed as change in AChE vitality at 20 mg/kg (reference value: 0.105 U/mg); type: functional
[7] = system: HT-22; assay: Cytotoxicity against mouse HT22 cells assessed as effect on cell viability at 10 uM by MTT assay; type: cell-based; conditions: ht-22, 10 µM
[8] = biological target: T1, Cholinesterase (Homo sapiens, UniProt P06276); assay: Inhibition of human serum BuChE assessed as residual activity at IC50 using acetylcholine iodide as substrate measured after dilution by Ellman's method relative to control
[9] = system: Mus musculus; assay: Improvement in cognitive impairment in scopolamine-induced mouse model of amnesia assessed as increase in spontaneous alteration at 5 to 10 mg/kg by Y-maze test; type: functional, organism-based; conditions: dose 5-10 mg/kg
[10] = Effect on tau protein level in mouse HT22 cells transfected with pRK5-GFP-Tau plasmid assessed as fluorescence intensity at 2.5 uM by fluorescence microscopy (Rvb <= 40.9); type: functional, HT-22
[11] = Toxicity in Zebrafish assessed as slow blood flow at 6.25 ug/ml relative to control; type: tissue-based, Danio rerio; conditions: at 6.25 µg/mL
[12] = Effect on tau protein level in mouse HT22 cells transfected with pRK5-GFP-Tau P301L plasmid assessed as fluorescence intensity at 20 uM by fluorescence microscopy (reference value: 33.6); type: functional, HT-22
[13] = system: Mus musculus; assay: Improvement in cognitive impairment in scopolamine-induced mouse model of amnesia assessed as change in spontaneous alteration at 20 mg/kg by Y-maze test (reference value: 40.8%); type: functional
[14] = organism: Danio rerio; assay: Antialzheimer activity in AlCl3-induced Zebrafish model of Alzheimer's disease assessed as increase in motility distance at […] relative to control; type: functional; conditions: dose 0.11 µg/ml
[15] = Acute toxicity in Kunming mouse assessed as damage in kidney at 50 to 1000 mg/kg measured after 7 days; type: organism-based; conditions: in vivo, 168 h, dose 50-1000 mg/kg, time 7 day
[16] = Drug metabolism in rat liver microsomes by HPLC analysis; type: ADME, Microsome
[17] = Effect on tau protein level in mouse HT22 cells transfected with pRK5-GFP-Tau plasmid assessed as fluorescence intensity at 10 uM by fluorescence microscopy (Rvb <= 40.9); type: functional, HT-22
[18] = Toxicity in Zebrafish assessed as mortality at 12.5 ug/ml relative to control; parameters: species or system Danio rerio; conditions: in vivo, at 12.5 µg/mL
[19] = Cytotoxicity against mouse HT22 cells assessed as cell viability at 80 uM by MTT assay relative to control; type: cell-based, HT-22; conditions: read-out: Activity
[20] = Acute toxicity in Kunming mouse assessed as damage in lung at 50 to 1000 mg/kg measured after 7 days; type: organism-based; conditions: in vivo, 168 h, dose 50-1000 mg/kg, time 7 day
[21] = Effect on spontaneous alteration behavior in mouse assessed as change in total arm entry at 5 to 20 mg/kg by Y-maze test; type: ADME, organism-based; conditions: in vivo, dose 5-20 mg/kg
[22] = biological target: T1, Cholinesterase; assay: Inhibition of human serum BuChE assessed as residual activity at IC50 using acetylcholine iodide as substrate measured by Ellman's method relative to control
[23] = organism: Danio rerio; assay: Protection against amyloid beta (1 to 42)-induced zebrafish model of vascular injury assessed as vascular injury rate at 1 ug/ml (reference value: 73.3%); type: functional; conditions: dose 1 µg/ml
[24] = Toxicity in Zebrafish assessed as degenerating muscle within the somites at 6.25 ug/ml relative to control; parameters: species or system Danio rerio; conditions: in vivo, at 6.25 µg/mL
[25] = organism: Danio rerio; assay: Antialzheimer activity in AlCl3-induced Zebrafish model of Alzheimer's disease assessed as increase in motility speed at 0.33 ug/ml relative to control; type: functional; conditions: dose 0.33 µg/ml
[26] = Toxicity in AlCl3-induced Zebrafish model of Alzheimer's disease assessed as mortality at 10 ug/ml relative to control; parameters: species or system Danio rerio; conditions: in vivo, at 10 µg/mL
[27] = system: HT-22; assay: Down regulation of tau protein expression in mouse HT22 cells transfected with pRK5-GFP-Tau plasmid at 2.5 to 20 uM by Western blot analysis; type: functional, cell-based; conditions: dose 2.5-20 µM
[28] = Effect on tau protein level in mouse HT22 cells transfected with pRK5-GFP-Tau P301L plasmid assessed as fluorescence intensity at 10 uM by fluorescence microscopy (reference value: 33.6); type: functional, HT-22
[29] = organism: Danio rerio; assay: Antialzheimer activity in AlCl3-induced Zebrafish model of Alzheimer's disease assessed as change in motility speed at […] (reference value: 1.08 mm/s); type: functional; conditions: dose 0.11 µg/ml
[30] = biological target: T1, Cholinesterase; assay: Pseudo-irreversible inhibition of human serum BuChE assessed as residual activity at 0.1 times IC50 using acetylcholine iodide as substrate measured 240 mins post dilution by Ellman's method relative to control
[31] = Toxicity in Zebrafish assessed as induction of yolk sac absorption delay at 1.04 ug/ml relative to control; parameters: species or system Danio rerio; conditions: in vivo, at 1.04 µg/mL
[32] = biological target: Acetylcholinesterase (Homo sapiens, UniProt P22303); assay: Inhibition of human erythrocytes AChE using acetylcholine iodide as substrate incubated for 15 mins by Ellman's method
[33] = organism: Danio rerio; assay: Antialzheimer activity in AlCl3-induced Zebrafish model of Alzheimer's disease assessed as increase in motility speed at 1 ug/ml relative to control; type: functional; conditions: dose 1 µg/ml
[34] = Acute toxicity in Kunming mouse assessed as damage in heart at 50 to 1000 mg/kg measured after 7 days; type: organism-based; conditions: in vivo, 168 h, dose 50-1000 mg/kg, time 7 day
[35] = system: HT-22; assay: Down regulation of tau protein expression in mouse HT22 cells transfected with pRK5-GFP-Tau P301L plasmid at 2.5 to 20 uM by Western blot analysis; type: functional, cell-based; conditions: dose 2.5-20 µM
[36] = Acute toxicity in Kunming mouse assessed as piloerection at 250 to 1000 mg/kg measured after 24 hrs; type: organism-based; conditions: in vivo, dose 250-1000 mg/kg
[37] = biological target: Amyloid-beta precursor protein (Homo sapiens) (UniProt P05067); assay: Inhibition of self-induced Amyloid beta (1 to 42 residues) (unknown origin) aggregation at 25 uM measured after 24 hrs by thioflavin T-based fluorimetric assay relative to control
[38] = organism: Danio rerio; assay: Antialzheimer activity in AlCl3-induced Zebrafish model of Alzheimer's disease assessed as motility distance at 1 ug/ml (reference value: 5346 mm); type: functional; conditions: dose 1 µg/ml
[39] = Toxicity in Zebrafish assessed as mortality at 25 ug/ml relative to control; parameters: species or system Danio rerio; conditions: in vivo, at 25 µg/mL

T1 sequence (P06276 whole entry): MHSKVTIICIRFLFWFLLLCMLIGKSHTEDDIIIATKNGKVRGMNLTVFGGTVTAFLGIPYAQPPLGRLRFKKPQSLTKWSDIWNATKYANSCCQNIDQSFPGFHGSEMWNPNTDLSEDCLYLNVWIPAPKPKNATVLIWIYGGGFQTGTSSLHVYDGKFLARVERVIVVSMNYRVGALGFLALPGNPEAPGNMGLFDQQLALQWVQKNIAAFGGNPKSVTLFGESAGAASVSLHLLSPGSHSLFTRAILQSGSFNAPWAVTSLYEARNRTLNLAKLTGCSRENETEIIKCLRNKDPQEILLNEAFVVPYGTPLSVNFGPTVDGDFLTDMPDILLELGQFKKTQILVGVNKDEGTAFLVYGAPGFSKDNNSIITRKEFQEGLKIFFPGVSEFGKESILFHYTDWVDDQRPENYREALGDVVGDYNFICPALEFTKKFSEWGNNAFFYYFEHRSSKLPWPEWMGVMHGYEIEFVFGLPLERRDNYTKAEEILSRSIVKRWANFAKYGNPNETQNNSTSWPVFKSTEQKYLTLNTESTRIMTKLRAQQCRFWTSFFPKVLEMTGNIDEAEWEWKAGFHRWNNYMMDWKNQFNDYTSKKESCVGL
Sequence of Cholinesterase (Equus caballus, UniProt P81908) (P81908 whole entry): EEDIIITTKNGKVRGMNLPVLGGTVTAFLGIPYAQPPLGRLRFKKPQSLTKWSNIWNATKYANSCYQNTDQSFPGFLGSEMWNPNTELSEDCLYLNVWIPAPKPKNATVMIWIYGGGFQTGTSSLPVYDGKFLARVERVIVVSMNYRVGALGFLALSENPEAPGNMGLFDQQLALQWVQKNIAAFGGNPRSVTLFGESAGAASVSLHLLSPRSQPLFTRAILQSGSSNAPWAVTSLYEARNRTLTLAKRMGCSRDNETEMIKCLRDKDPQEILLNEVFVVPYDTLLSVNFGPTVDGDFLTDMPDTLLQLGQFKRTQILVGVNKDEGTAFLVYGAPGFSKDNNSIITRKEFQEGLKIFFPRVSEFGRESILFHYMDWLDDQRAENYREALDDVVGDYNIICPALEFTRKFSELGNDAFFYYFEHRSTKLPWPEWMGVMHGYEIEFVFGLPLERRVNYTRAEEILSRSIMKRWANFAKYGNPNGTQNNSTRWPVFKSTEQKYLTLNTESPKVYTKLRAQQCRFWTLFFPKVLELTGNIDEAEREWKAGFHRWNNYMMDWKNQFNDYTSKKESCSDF
Sequence of Acetylcholinesterase (P22303 whole entry): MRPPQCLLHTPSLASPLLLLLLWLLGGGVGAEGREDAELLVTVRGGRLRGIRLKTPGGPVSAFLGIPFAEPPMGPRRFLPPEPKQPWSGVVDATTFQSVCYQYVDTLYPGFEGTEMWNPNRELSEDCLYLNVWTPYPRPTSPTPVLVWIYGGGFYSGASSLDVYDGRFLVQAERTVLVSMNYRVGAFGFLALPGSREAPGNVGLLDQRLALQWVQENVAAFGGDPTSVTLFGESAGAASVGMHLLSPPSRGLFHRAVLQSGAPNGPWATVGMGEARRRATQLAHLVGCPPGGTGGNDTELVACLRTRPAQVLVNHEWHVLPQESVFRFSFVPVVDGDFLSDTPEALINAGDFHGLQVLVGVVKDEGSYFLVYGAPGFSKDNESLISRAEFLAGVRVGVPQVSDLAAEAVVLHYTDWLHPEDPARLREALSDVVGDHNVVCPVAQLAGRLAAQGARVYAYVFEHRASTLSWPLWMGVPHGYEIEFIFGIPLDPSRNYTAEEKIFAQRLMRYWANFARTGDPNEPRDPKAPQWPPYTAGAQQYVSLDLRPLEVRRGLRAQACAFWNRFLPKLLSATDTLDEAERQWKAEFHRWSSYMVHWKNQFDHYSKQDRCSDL
Sequence of Amyloid-beta precursor protein (Homo sapiens) (P05067 whole entry, the tested form may be a part): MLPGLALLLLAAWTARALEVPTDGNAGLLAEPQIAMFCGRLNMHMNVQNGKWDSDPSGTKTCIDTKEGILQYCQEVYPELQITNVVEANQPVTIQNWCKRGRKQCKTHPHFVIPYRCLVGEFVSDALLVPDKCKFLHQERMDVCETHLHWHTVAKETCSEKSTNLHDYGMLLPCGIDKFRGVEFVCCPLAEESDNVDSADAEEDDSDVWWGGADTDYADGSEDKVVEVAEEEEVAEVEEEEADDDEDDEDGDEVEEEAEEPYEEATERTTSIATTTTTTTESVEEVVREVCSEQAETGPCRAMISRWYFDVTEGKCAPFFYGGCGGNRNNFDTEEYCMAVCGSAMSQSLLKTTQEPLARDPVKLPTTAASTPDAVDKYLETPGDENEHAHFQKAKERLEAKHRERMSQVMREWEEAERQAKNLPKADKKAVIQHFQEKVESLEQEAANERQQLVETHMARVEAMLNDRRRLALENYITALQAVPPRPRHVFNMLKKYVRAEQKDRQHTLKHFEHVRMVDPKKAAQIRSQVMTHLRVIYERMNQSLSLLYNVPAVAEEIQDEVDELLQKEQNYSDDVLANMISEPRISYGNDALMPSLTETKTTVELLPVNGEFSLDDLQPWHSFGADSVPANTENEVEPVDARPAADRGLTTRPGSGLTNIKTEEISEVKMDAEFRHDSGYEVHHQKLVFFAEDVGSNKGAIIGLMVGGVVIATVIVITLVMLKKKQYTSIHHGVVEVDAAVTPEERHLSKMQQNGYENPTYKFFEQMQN

`CCN(C)C(=O)Oc1ccc(/C=C/C(=O)N2CCc3ccccc3C2)cc1OC` showed a Flu intensity [1] of 29.8, an IC50 [2] of 0.92 µM and a mortality at 50 ug/ml [3] of 100%. The viability at 50 µM [4] was 46.9%, the Drug metabolism [5] was “Metabolite_Detected” and the Activity [6] was 0.1 U/mg. For the same molecule, the Activity [7] was “Non-Toxic”, the Activity [8] was 48.2% and the Activity [9] was “Active”. For the same molecule, the Flu intensity [10] was 32.6, the Activity [11] was 16.7% and the Flu intensity [12] was 17.9. For the same molecule, the Activity [13] was 61.6%, the Efficacy [14] was 54.9% and the Activity [15] was “Non-Toxic”. For the same molecule, the Drug metabolism [16] was “Metabolite_Detected”, the Flu intensity [17] was 33.3 and the mortality at 12.5 ug/ml [18] was 100%. The viability at 80 µM [19] was 8.4%, the Activity [20] was “Non-Toxic” and the Activity [21] was “Non-Toxic”. The Activity [22] was 53.2%, the Activity [23] was 53.3% and the Activity [24] was 36.7%. The Efficacy [25] was 79%, the mortality at 10 ug/ml [26] was 0% and the Activity [27] was “Active”. The Flu intensity [28] was 18.7, the Activity [29] was 1.79 millimeter/sec and the Activity [30] was 66.2%. It also gave an Activity [31] of 13.3%, an IC50 [32] of 10.6 µM and an Efficacy [33] of 86.3%. The Activity [34] was “Non-Toxic”, the Activity [35] was “Active” and the Activity [36] was “Non-Toxic”. It also gave an inhibition [37] of 58.2%, an Activity [38] of 7024 mm and a mortality at 25 ug/ml [39] of 100%.
